Results published in US10035799B2, “COMT inhibiting methods and compositions” (Lieber Institute for Brain Development, priority 2015, dated 2018).

Target: T1, catechol-O-methyltransferase (COMT) (Homo sapiens, UniProt P21964)
T1 construct: M51A variant) was expressed in HEK 293F cells
T1 sequence (P21964 52-271 limits assumed): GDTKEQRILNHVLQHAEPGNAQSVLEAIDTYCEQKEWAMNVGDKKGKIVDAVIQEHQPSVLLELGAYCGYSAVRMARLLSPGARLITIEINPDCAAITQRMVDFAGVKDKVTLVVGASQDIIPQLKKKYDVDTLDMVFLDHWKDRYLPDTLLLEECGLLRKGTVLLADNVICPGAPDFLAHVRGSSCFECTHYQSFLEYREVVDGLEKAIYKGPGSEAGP
Test: COMT inhibition assay (HTRF, production of S-adenosyl homocysteine)
Type: biochemical
Details: recombinant human COMT, HTRF SAH production; MB-COMT or S-COMT not stated for Table 1
Summary of the method: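 SAH formed from SAM (20 μM) measured by HTRF with SAH standard curve; pIC50 from 4-parameter fit. MB-COMT (M51A, HEK293F membranes, 62 ng/well): 1.5 μM dopamine, 40 min, 37° C.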

| Compound | Activity range (pIC50, COMT inhibition) |
| --- | --- |
| Cc1ccc(S(=O)(=O)c2ccc(O)c3ncccc23)cc1C [Example 3, 5-(3,4-dimethylphenyl)sulfonylquinolin-8-ol] | +++ (a pIC50 of above about 7) |
| O=S(=O)(c1ccc(O)c2ncccc12)N1CCCCC1c1ccccc1 (stereo not drawn) [Example 61, 5-[(2-phenyl-1-piperidyl)sulfonyl]quinolin-8-ol] | ++ (a pIC50 of from about great than 6 to 7) |
| O=S(=O)(c1ccc(O)c2ncccc12)N1CCN(c2nsc3ccccc23)CC1 [Example 98, 5-[4-(1,2-benzothiazol-3-yl)piperazin-1-yl]sulfonylquinolin-8-ol] | ++ (a pIC50 of from about great than 6 to 7) |
| CN1CCN(S(=O)(=O)c2ccc(O)c3ncccc23)CC1 [Example 60, 5-(4-methylpiperazin-1-yl)sulfonylquinolin-8-ol] | ++ (a pIC50 of from about great than 6 to 7) |
| Cc1ccc(N(C)S(=O)(=O)c2ccc(O)c3ncccc23)cc1 [Example 46, 8-hydroxy-N-(4-methylphenyl)-N-methylquinoline-5-sulfonamide] | ++ (a pIC50 of from about great than 6 to 7) |
| O=S(=O)(c1ccc(O)c2ncccc12)N1CCN(c2ccccc2)CC1 [Example 41, 5-(4-phenylpiperazin-1-yl)sulfonylquinolin-8-ol] | ++ (a pIC50 of from about great than 6 to 7) |
| O=S(=O)(c1ccc(O)c2ncccc12)N1CCCC1c1ccccn1 (stereo not drawn) [Example 80, 5-[2-(2-pyridyl)pyrrolidin-1-yl]sulfonylquinolin-8-ol] | ++ (a pIC50 of from about great than 6 to 7) |
| O=S(=O)(c1ccc(O)c2ncccc12)N1CCCC1c1cccnc1 (stereo not drawn) [Example 72, 5-[2-(3-pyridyl)pyrrolidin-1-yl]sulfonylquinolin-8-ol] | ++ (a pIC50 of from about great than 6 to 7) |
| O=S(=O)(c1ccncc1)c1ccc(O)c2ncccc12 [Example 17, 5-(4-pyridylsulfonyl)quinolin-8-ol] | ++ (a pIC50 of from about great than 6 to 7) |
| CN(C)CCN(Cc1ccccc1)S(=O)(=O)c1ccc(O)c2ncccc12 [Example 57, N-benzyl-N-(2-dimethylaminoethyl)-8-hydroxy-quinoline-5-sulfonamide] | ++ (a pIC50 of from about great than 6 to 7) |
| O=S(=O)(c1ccc(O)c2ncccc12)N1CCN(c2cccc(Cl)c2Cl)CC1 [Example 97, 5-[4-(2,3-dichlorophenyl)piperazin-1-yl]sulfonylquinolin-8-ol] | ++ (a pIC50 of from about great than 6 to 7) |

Other lines, results leading:

| Activity range (pIC50, COMT inhibition) | Compound |
| --- | --- |
| +++ (a pIC50 of above about 7) | O=S(=O)(c1ccc(O)c2ncccc12)C1CCCC1 [Example 31, 5-cyclopentylsulfonylquinolin-8-ol] |
| +++ (a pIC50 of above about 7) | CN(Cc1cccc(Cl)c1)S(=O)(=O)c1ccc(O)c2ncccc12 [Example 53, N-[(3-chlorophenyl)methyl]-8-hydroxy-N-methyl-quinoline-5-sulfonamide] |
| +++ (a pIC50 of above about 7) | O=S(=O)(c1ccc(O)c2ncccc12)c1cccc2c1ncn2Cc1ccccc1Cl [Example 28, 5-[1-[(2-chlorophenyl)methyl]benzimidazol-4-yl]sulfonylquinolin-8-ol] |
| +++ (a pIC50 of above about 7) | O=S(=O)(c1ccc(O)c2ncccc12)N1CCCC1c1ccc(F)cc1 (stereo not drawn) [Example 74, 5-[2-(4-fluorophenyl)pyrrolidin-1-yl]sulfonylquinolin-8-ol] |
| +++ (a pIC50 of above about 7) | O=S(=O)(c1cccc(-c2cccc3ncccc23)c1)c1ccc(O)c2ncccc12 [Example 25, 5-[3-(5-quinolyl)phenyl]sulfonylquinolin-8-ol] |
| +++ (a pIC50 of above about 7) | O=S(=O)(c1cccc(-c2ccc(F)c(Cl)c2)c1)c1ccc(O)c2ncccc12 [Example 24, 5-[3-(3-chloro-4-fluoro-phenyl)phenyl]sulfonylquinolin-8-ol] |
| +++ (a pIC50 of above about 7) | O=S(=O)(c1ccc(O)c2ncccc12)N1CCN(Cc2ccc(F)cc2)CC1 [Example 101, 5-[4-[(4-fluorophenyl)methyl]piperazin-1-yl]sulfonylquinolin-8-ol] |
| +++ (a pIC50 of above about 7) | Cc1ccc(S(=O)(=O)c2cc(Cl)c(O)c3ncccc23)cc1 [Example 109, 7-chloro-5-(p-tolylsulfonyl)quinolin-8-ol] |
| + (a pIC50 of from about 4.5 to 6) | Cc1cc(S(=O)(=O)N2CCN(Cc3ccc(F)cc3)CC2)c2cccnc2c1O [Example 114, 5-[4-[(4-fluorophenyl)methyl]piperazin-1-yl]sulfonyl-7-methyl-quinolin-8-ol] |
| +++ (a pIC50 of above about 7) | Cc1cc(C)cc(S(=O)(=O)c2ccc(O)c3ncccc23)c1 [Example 4, 5-(3,5-dimethylphenyl)sulfonylquinolin-8-ol] |
| +++ (a pIC50 of above about 7) | Cc1cc(F)ccc1S(=O)(=O)c1ccc(O)c2ncccc12 [Example 20, 5-(4-fluoro-2-methyl-phenyl)sulfonylquinolin-8-ol] |
| +++ (a pIC50 of above about 7) | O=C(c1ccccc1)C1CCN(S(=O)(=O)c2ccc(O)c3ncccc23)CC1 [Example 85, [1-[(8-hydroxy-5-quinolyl)sulfonyl]-4-piperidyl]-phenyl-methanone] |
| +++ (a pIC50 of above about 7) | CC(C)(C)c1ccc(S(=O)(=O)c2ccc(O)c3ncccc23)cc1 [Example 5, 5-(4-tert-butylphenyl)sulfonylquinolin-8-ol] |
| + (a pIC50 of from about 4.5 to 6) | CCS(=O)(=O)c1ccc(O)c2ncccc12 [Example 33, 5-ethylsulfonylquinolin-8-ol] |

Test system: not given
Test: not given
Details: Russ, et al. 1999; cited from earlier work

| Compound | brain penetration |
| --- | --- |
| Cc1ccc(C(=O)c2cc(O)c(O)c([N+](=O)[O-])c2)cc1 [tolcapone] | low but measurable |
| CCN(CC)C(=O)/C(C#N)=C/c1cc(O)c(O)c([N+](=O)[O-])c1 [entacapone] | negligible |

Test system: not given
Test: not given
Details: Nutt and Fellman 1984; cited from earlier work

| Compound | percentage of exogenously administered L-DOPA that reaches the brain [%] |
| --- | --- |
| N[C@@H](Cc1ccc(O)c(O)c1)C(=O)O [L-DOPA] | ~1 |

Target: T2, aromatic amino acid decarboxylase (AAAD) (Homo sapiens, UniProt P20711)
T2 sequence (P20711 1-480): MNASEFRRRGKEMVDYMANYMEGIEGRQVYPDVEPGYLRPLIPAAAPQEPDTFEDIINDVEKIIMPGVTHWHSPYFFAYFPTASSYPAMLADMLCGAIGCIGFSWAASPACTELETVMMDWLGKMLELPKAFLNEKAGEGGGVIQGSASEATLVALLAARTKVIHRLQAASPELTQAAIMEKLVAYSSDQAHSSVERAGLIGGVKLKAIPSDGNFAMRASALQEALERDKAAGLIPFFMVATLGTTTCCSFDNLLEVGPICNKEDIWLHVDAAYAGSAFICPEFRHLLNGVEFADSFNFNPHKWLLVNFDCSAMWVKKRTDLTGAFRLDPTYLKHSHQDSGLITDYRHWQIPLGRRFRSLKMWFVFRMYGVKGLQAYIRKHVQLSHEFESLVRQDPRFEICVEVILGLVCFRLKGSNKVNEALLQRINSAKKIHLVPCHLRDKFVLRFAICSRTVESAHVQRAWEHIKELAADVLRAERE
Test: not given
Details: given with L-DOPA; Nutt, Woodward et al. 1985; cited from earlier work

| Compound | reduction of the efficacious L-DOPA dose |
| --- | --- |
| C[C@@](Cc1ccc(O)c(O)c1)(NN)C(=O)O [Carbidopa] | 60-80% |

Test system: not given
Test: not given
Details: clinical use; Olanow and Watkins 2007; cited from earlier work

| Compound | liver injury |
| --- | --- |
| Cc1ccc(C(=O)c2cc(O)c(O)c([N+](=O)[O-])c2)cc1 [tolcapone] | serious liver injury, including three deaths |
